Experimental data published in publication PMC5433425 (PeerJ, 2017).
Where “and” joins values, the source holds several entries; their conditions need not be identical. Equal values may be shown once. Read-outs that look alike come from different tables or passages of the source. Peptide text beside a SMILES is read from it. * marks the point of attachment. βNA = c1ccc2cc(N*)ccc2c1

Legend:
[1] = system: E. coli AG100A (AcrAB pump-deficient); assay: MIC, broth microdilution; assay type: cell-based, Escherichia coli; conditions: Escherichia coli
E. coli AG100 [2] = assay: Checkerboard synergy assay (MIC of antibiotics/EtBr with efflux inhibitor); assay type: cell-based, Escherichia coli; conditions: Escherichia coli
Experimental: (§1) The assays were performed in triplicate and the MIC value was given as result of at least two concordant values.

E. coli AG100tet [3] = assay: microbe, parasite or virus in culture; assay type: cell-based, Escherichia coli; conditions: for MIC: Escherichia coli, AG100TET
Experimental: as §1

E. coli AG100A = conditions: EtBr […] + inhibitor 20 µM
E. coli AG100 [4] = assay: EtBr accumulation by real-time fluorometry; conditions: EtBr 1 µg/ml + inhibitor 80 µM
E. coli AG100tet [5] = assay: EtBr accumulation by real-time fluorometry; conditions: EtBr 2 µg/ml + inhibitor 80 µM
E. coli AG100 [6] = assay: Membrane permeability assay (Live/Dead BacLight)
[7] = 80 uM, raw well reading, listed as PAN

`NC(N)=NCCC[C@H](NC(=O)[C@@H](N)Cc1ccccc1)C(=O)Nc1ccc2ccccc2c1` [PAβN] (H-Phe-Arg-βNA) was tested, and the MIC [1] was 50 µg/mL and 96.3 µM, the MIC (E. coli AG100 [2]; AG100, AG100, inhibitor 40 μM, read-out: MIC of OXA in presence of the efflux inhibitor) was 64 µg/mL and the MIC (E. coli AG100 [2]; AG100, AG100, inhibitor 80 μM, read-out: MIC of OXA in presence of the efflux inhibitor) was 64 µg/mL. For the same compound, the MIC (E. coli AG100 [2]; AG100, AG100, inhibitor 160 μM, read-out: MIC of OXA in presence of the efflux inhibitor) was 64 µg/mL, the MIC (E. coli AG100 [2]; AG100, read-out: MIC of EtBr in presence of the efflux inhibitor, AG100, inhibitor 40 μM) was 100 µg/mL and the MIC (E. coli AG100 [2]; AG100, read-out: MIC of EtBr in presence of the efflux inhibitor, AG100, inhibitor 80 μM) was 100 µg/mL. For the same compound, the MIC (E. coli AG100 [2]; AG100, read-out: MIC of EtBr in presence of the efflux inhibitor, AG100, inhibitor 160 μM) was 100 µg/mL, the MIC (E. coli AG100 [2]; AG100, read-out: MIC of OFX in presence of the efflux inhibitor, AG100, inhibitor 40 μM) was 0.06 µg/mL and the MIC (E. coli AG100 [2]; AG100, read-out: MIC of OFX in presence of the efflux inhibitor, AG100, inhibitor 80 μM) was 0.06 µg/mL. It also gave an MIC (E. coli AG100 [2]; AG100, read-out: MIC of OFX in presence of the efflux inhibitor, AG100, inhibitor 160 μM) of 0.06 µg/mL, an MIC (E. coli AG100 [2]; AG100, read-out: MIC of TET in presence of the efflux inhibitor, AG100, inhibitor 40 μM) of 2 µg/mL and an MIC (E. coli AG100 [2]; AG100, read-out: MIC of TET in presence of the efflux inhibitor, AG100, inhibitor 80 μM) of 1 µg/mL. The MIC (E. coli AG100 [2]; AG100, read-out: MIC of TET in presence of the efflux inhibitor, AG100, inhibitor 160 μM) was 0.06 µg/mL, the “decrease in EtBr MIC” value (E. coli AG100tet [3]; AG100tet (AcrAB-overexpressing strain)) was 128 fold and the MIC (E. coli AG100tet [3]; read-out: MIC of EtBr in presence of the efflux inhibitor, AG100tet, inhibitor 40 μM) was 256 µg/mL. It also gave an MIC (E. coli AG100tet [3]; read-out: MIC of EtBr in presence of the efflux inhibitor, AG100tet, inhibitor 80 μM) of 128 µg/mL, an MIC (E. coli AG100tet [3]; read-out: MIC of EtBr in presence of the efflux inhibitor, AG100tet, inhibitor 160 μM) of 4 µg/mL and an MIC (E. coli AG100tet [3]; read-out: MIC of OFX in presence of the efflux inhibitor, AG100tet, inhibitor 40 μM) of 0.06 µg/mL. It also gave an MIC (E. coli AG100tet [3]; read-out: MIC of OFX in presence of the efflux inhibitor, AG100tet, inhibitor 80 μM) of 0.03 µg/mL, an MIC (E. coli AG100tet [3]; read-out: MIC of OFX in presence of the efflux inhibitor, AG100tet, inhibitor 160 μM) of 0.03 µg/mL and an MIC (E. coli AG100tet [3]; read-out: MIC of OXA in presence of the efflux inhibitor, AG100tet, inhibitor 40 μM) of 256 µg/mL. For the same compound, the MIC (E. coli AG100tet [3]; read-out: MIC of OXA in presence of the efflux inhibitor, AG100tet, inhibitor 80 μM) was 256 µg/mL, the MIC (E. coli AG100tet [3]; read-out: MIC of OXA in presence of the efflux inhibitor, AG100tet, inhibitor 160 μM) was 64 µg/mL and the MIC (E. coli AG100tet [3]; read-out: MIC of TET in presence of the efflux inhibitor, AG100tet, inhibitor 40 μM) was 8 µg/mL. It also gave an MIC (E. coli AG100tet [3]; read-out: MIC of TET in presence of the efflux inhibitor, AG100tet, inhibitor 80 μM) of 4 µg/mL, an MIC (E. coli AG100tet [3]; read-out: MIC of TET in presence of the efflux inhibitor, AG100tet, inhibitor 160 μM) of 2 µg/mL and an EtBr fluorescence (E. coli AG100A; cycle 1) of 2.806. The EtBr fluorescence (E. coli AG100A; cycle 2) was 3.199, the EtBr fluorescence (E. coli AG100A; cycle 3) was 3.493 and the EtBr fluorescence (E. coli AG100A; cycle 4) was 3.706. For the same compound, the EtBr fluorescence (E. coli AG100A; cycle 5) was 3.997, the EtBr fluorescence (E. coli AG100A; cycle 6) was 4.263 and the EtBr fluorescence (E. coli AG100A; cycle 7) was 4.462. For the same compound, the EtBr fluorescence (E. coli AG100A; cycle 8) was 4.698, the EtBr fluorescence (E. coli AG100A; cycle 9) was 5.01 and the EtBr fluorescence (E. coli AG100A; cycle 10) was 5.162. It also gave an EtBr fluorescence (E. coli AG100A; cycle 11) of 5.32, an EtBr fluorescence (E. coli AG100A; cycle 12) of 5.607 and an EtBr fluorescence (E. coli AG100A; cycle 13) of 5.848. The EtBr fluorescence (E. coli AG100A; cycle 14) was 6.013, the EtBr fluorescence (E. coli AG100A; cycle 15) was 6.228 and the EtBr fluorescence (E. coli AG100A; cycle 16) was 6.479. It also gave an EtBr fluorescence (E. coli AG100A; cycle 17) of 6.607, an EtBr fluorescence (E. coli AG100A; cycle 18) of 6.927 and an EtBr fluorescence (E. coli AG100A; cycle 19) of 6.923. The EtBr fluorescence (E. coli AG100A; cycle 20) was 7.2698, the EtBr fluorescence (E. coli AG100A; cycle 21) was 7.508 and the EtBr fluorescence (E. coli AG100A; cycle 22) was 7.627. The EtBr fluorescence (E. coli AG100A; cycle 23) was 7.913, the EtBr fluorescence (E. coli AG100A; cycle 24) was 7.996 and the EtBr fluorescence (E. coli AG100A; cycle 25) was 8.302. For the same compound, the EtBr fluorescence (E. coli AG100A; cycle 26) was 8.33, the EtBr fluorescence (E. coli AG100A; cycle 27) was 8.55 and the EtBr fluorescence (E. coli AG100A; cycle 28) was 8.862. For the same compound, the EtBr fluorescence (E. coli AG100A; cycle 29) was 8.894, the EtBr fluorescence (E. coli AG100A; cycle 30) was 9.1148 and the EtBr fluorescence (E. coli AG100 [4]; cycle 1) was 5.077. For the same compound, the EtBr fluorescence (E. coli AG100 [4]; cycle 2) was 5.498, the EtBr fluorescence (E. coli AG100 [4]; cycle 3) was 5.692 and the EtBr fluorescence (E. coli AG100 [4]; cycle 4) was 6.095. The EtBr fluorescence (E. coli AG100 [4]; cycle 5) was 6.2405, the EtBr fluorescence (E. coli AG100 [4]; cycle 6) was 6.476 and the EtBr fluorescence (E. coli AG100 [4]; cycle 7) was 6.738. For the same compound, the EtBr fluorescence (E. coli AG100 [4]; cycle 8) was 6.948, the EtBr fluorescence (E. coli AG100 [4]; cycle 9) was 7.121 and the EtBr fluorescence (E. coli AG100 [4]; cycle 10) was 7.401. For the same compound, the EtBr fluorescence (E. coli AG100 [4]; cycle 11) was 7.525, the EtBr fluorescence (E. coli AG100 [4]; cycle 12) was 7.725 and the EtBr fluorescence (E. coli AG100 [4]; cycle 13) was 8.024. The EtBr fluorescence (E. coli AG100 [4]; cycle 14) was 8.041, the EtBr fluorescence (E. coli AG100 [4]; cycle 15) was 8.277 and the EtBr fluorescence (E. coli AG100 [4]; cycle 16) was 8.537. The EtBr fluorescence (E. coli AG100 [4]; cycle 17) was 8.7426, the EtBr fluorescence (E. coli AG100 [4]; cycle 18) was 8.8367 and the EtBr fluorescence (E. coli AG100 [4]; cycle 19) was 8.945. The EtBr fluorescence (E. coli AG100 [4]; cycle 20) was 9.137, the EtBr fluorescence (E. coli AG100 [4]; cycle 21) was 9.31 and the EtBr fluorescence (E. coli AG100 [4]; cycle 22) was 9.534. The EtBr fluorescence (E. coli AG100 [4]; cycle 23) was 9.8, the EtBr fluorescence (E. coli AG100 [4]; cycle 24) was 9.927 and the EtBr fluorescence (E. coli AG100 [4]; cycle 25) was 10.0486. The EtBr fluorescence (E. coli AG100 [4]; cycle 26) was 10.1364, the EtBr fluorescence (E. coli AG100 [4]; cycle 27) was 10.3331 and the EtBr fluorescence (E. coli AG100 [4]; cycle 28) was 10.5844. It also gave an EtBr fluorescence (E. coli AG100 [4]; cycle 29) of 10.7732, an EtBr fluorescence (E. coli AG100 [4]; cycle 30) of 11.0863 and an EtBr fluorescence (E. coli AG100tet [5]; cycle 1) of 11.1278. The EtBr fluorescence (E. coli AG100tet [5]; cycle 2) was 12.695, the EtBr fluorescence (E. coli AG100tet [5]; cycle 3) was 14.0098 and the EtBr fluorescence (E. coli AG100tet [5]; cycle 4) was 14.9916. For the same compound, the EtBr fluorescence (E. coli AG100tet [5]; cycle 5) was 15.9316, the EtBr fluorescence (E. coli AG100tet [5]; cycle 6) was 16.6928 and the EtBr fluorescence (E. coli AG100tet [5]; cycle 7) was 17.1135. The EtBr fluorescence (E. coli AG100tet [5]; cycle 8) was 17.7313, the EtBr fluorescence (E. coli AG100tet [5]; cycle 9) was 18.0085 and the EtBr fluorescence (E. coli AG100tet [5]; cycle 10) was 18.4427. The EtBr fluorescence (E. coli AG100tet [5]; cycle 11) was 18.7463, the EtBr fluorescence (E. coli AG100tet [5]; cycle 12) was 18.8264 and the EtBr fluorescence (E. coli AG100tet [5]; cycle 13) was 19.2404. For the same compound, the EtBr fluorescence (E. coli AG100tet [5]; cycle 14) was 19.2594, the EtBr fluorescence (E. coli AG100tet [5]; cycle 15) was 19.2787 and the EtBr fluorescence (E. coli AG100tet [5]; cycle 16) was 19.7369. For the same compound, the EtBr fluorescence (E. coli AG100tet [5]; cycle 17) was 19.738, the EtBr fluorescence (E. coli AG100tet [5]; cycle 18) was 20.2008 and the EtBr fluorescence (E. coli AG100tet [5]; cycle 19) was 19.7958. It also gave an EtBr fluorescence (E. coli AG100tet [5]; cycle 20) of 20.1672, an EtBr fluorescence (E. coli AG100tet [5]; cycle 21) of 20.6387 and an EtBr fluorescence (E. coli AG100tet [5]; cycle 22) of 20.6639. The EtBr fluorescence (E. coli AG100tet [5]; cycle 23) was 21.3214, the EtBr fluorescence (E. coli AG100tet [5]; cycle 24) was 21.3175 and the EtBr fluorescence (E. coli AG100tet [5]; cycle 25) was 21.5239. For the same compound, the EtBr fluorescence (E. coli AG100tet [5]; cycle 26) was 21.9663, the EtBr fluorescence (E. coli AG100tet [5]; cycle 27) was 22.3215 and the EtBr fluorescence (E. coli AG100tet [5]; cycle 28) was 22.6925. For the same compound, the EtBr fluorescence (E. coli AG100tet [5]; cycle 29) was 23.1641, the EtBr fluorescence (E. coli AG100tet [5]; cycle 30) was 23.4062 and the “BacLight Live/Dead fluorescence 485/20,528/20” value (E. coli AG100 [6]; [7]) was 168 and 192. For the same compound, the “BacLight Live/Dead fluorescence 485/20,590/35” value (E. coli AG100 [6]; [7]) was 43 and 57 and the “membrane permeability increase / membrane permeation” value (E. coli AG100 [6]; AG100, 80 µM) was 14%.
